Experimental data as given in publication PMC10848004 (Saudi Pharmaceutical Journal : SPJ, 2024).

How the values were obtained:
[1] = system: glaucomatous rabbit eye model; assay: Antiglaucoma activity in vivo, IOP lowering, topical; conditions: 1 % concentration, at 1 h post-administration
CYP2D6 = CYP2D6 (Homo sapiens, UniProt P10635); assay: CYP inhibition in HLM, CYP2D6; assay type: in vitro ADME
Sequence of CYP2D6 (P10635 whole entry): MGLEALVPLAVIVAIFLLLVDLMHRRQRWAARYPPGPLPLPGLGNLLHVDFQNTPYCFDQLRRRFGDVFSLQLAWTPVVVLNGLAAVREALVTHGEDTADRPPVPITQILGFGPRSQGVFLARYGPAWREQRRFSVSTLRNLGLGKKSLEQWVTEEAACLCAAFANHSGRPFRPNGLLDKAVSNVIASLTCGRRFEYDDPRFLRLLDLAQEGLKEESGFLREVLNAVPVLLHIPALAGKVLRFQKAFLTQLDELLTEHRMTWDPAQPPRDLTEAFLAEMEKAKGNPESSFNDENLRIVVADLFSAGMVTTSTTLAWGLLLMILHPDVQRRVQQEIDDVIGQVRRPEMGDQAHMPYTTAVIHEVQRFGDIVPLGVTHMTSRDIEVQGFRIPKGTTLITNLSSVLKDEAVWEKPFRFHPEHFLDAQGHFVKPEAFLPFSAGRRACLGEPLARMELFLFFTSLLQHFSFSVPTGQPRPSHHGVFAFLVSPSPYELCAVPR

With `CCN[C@H]1CN(CCCOC)S(=O)(=O)c2sc(S(N)(=O)=O)cc21` [BRZ, brinzolamide] the “maximal intraocular pressure lowering effect” value [1] was “around 5 mm Hg”.
Work on `COc1ccc2c(c1)[C@]13CCCC[C@@H]1[C@H](C2)N(C)CC3` [Dextromethorphan] yielded an IC50 (CYP2D6) of 1340 nM.
